Test results published in patent publication US11465963B2, “Tetrahydronaphthalene derivatives useful as Nrf2 activators” (BIOGEN MA INC., priority 2017, dated 2022).

Experiments:
Format in all cases: cell-based
human astrocytes [1] = assay: Cytoprotection of human astrocytes from sodium arsenite; details: compound 20 hrs before 25 μM sodium arsenite, then 22 hrs, FIG. 3
Protocol: Human astrocytes from ScienCell (cat #1820) were grown in astrocyte medium per supplier's instructions. Cells cultured for no more than two passages were plated in 96-well plates at 40,000 cells per well for gene transcription experiments and 20,000 cells per well for glutathione and cytoprotection assays. Astrocytes were treated for 20 hrs as above, then the medium was removed and replaced with serum- and supplement-free growth medium with and without 25 μM sodium arsenite. After 22 hrs., cells were washed with PBS, fixed with 4% paraformaldehyde/4% sucrose in PBS, stained with 4′,6-Diamidino-2-phenylindole dihydrochloride (DAPI) and counted by quantitative fluorescence microscopy.

[2] = system: Nrf2 target genes, including GCLC, HMOX1, OSGIN1 and NQO1; assay: Gene expression (RT-PCR) in cultured human astrocytes; details: human astrocytes treated with increasing concentrations for 20 hours
Protocol: (§1) Human astrocytes from ScienCell (cat #1820) were grown in astrocyte medium per supplier's instructions. Cells cultured for no more than two passages were plated in 96-well plates at 40,000 cells per well for gene transcription experiments and 20,000 cells per well for glutathione and cytoprotection assays.
Primary cultures of human spinal cord astrocytes were treated with compound for 20 hours. The cells were then rinsed in PBS, lysed, and processed for RNA using Ambion Taqman™ Cells-to-CT kit. The resulting cDNA was stored at −20° C. until analysis by real-time polymerase chain reaction (RT-PCR). The cDNA mixture from Cells-to-CT was diluted 5× before loading into PCR. This yields results similar to using 6 ng of purified cDNA. RT-PCR was performed on Life Technologies QuantStudio platform using OpenArray technique according to manufacturer's protocol using the following Taqman primers: […]
The comparative CT method was used to calculate fold changes using ThermoFisher Cloud software for PCR analysis. Samples were compared to vehicle control.

human astrocytes [3] = assay: Glutathione assay in cultured human astrocytes; details: 20-hr exposure, FIG. 2
Protocol: as §1
Intracellular glutathione was measured after a 20-hr exposure to test compounds by a two-step process. First, cells were lysed and luciferin quantitatively generated from substrate, catalyzed by glutathione-S-transferase in the presence of analyte glutathione. Then luciferin was assayed using stabilized luciferase to produce a luminescent signal proportional to the concentration of glutathione (Promega GSH-Glo, cat #V6912).

For `CC1(C)C(=O)C(C#N)=C[C@]2(C)C[C@](O)(c3ccccc3)CC[C@H]12` [Compound 24, (4aS,7S,8aS)-7-hydroxy-4,4,8a-trimethyl-3-oxo-7-phenyl-4a,5,6,8-tetrahydronaphthalene-2-carbonitrile], the “protection from oxidative stress-induced cell death” value (human astrocytes [1]) was “protects”, the “transcription of GCLC” value ([2]; FIG. 1A) was “induces transcription” and the “transcription of HMOX1” value ([2]; FIG. 1B) was “induces transcription”. For the same compound, the “transcription of OSGIN1” value ([2]; FIG. 1C) was “induces transcription”, the “transcription of NQO1” value ([2]; FIG. 1D) was “induces transcription” and the intracellular glutathione (human astrocytes [3]) was “increases”.
